Test results taken from the NIST ThermoML archive (doi:10.1016/j.fluid.2018.05.028).
± gives the expanded uncertainty stated by the source.

Test: xn = mol fraction of the nth substance listed
Conditions: 101 kPa, Liquid; for viscosity: Concentric cylinders viscometry; for speed of sound: Single path-length method; for mass density: Vibrating tube method

CCCCCCCC/C=C\CCCCCCCC(=O)OCC [ethyl (Z)-9-octadeceneoate] + CCCO
Conditions	mass density [kg/m3]	speed of sound [m/s]	viscosity [mPa·s]
293.15 K, x2 = 0	868.91 ± 1	1394.2 ± 2	6.413 ± 0.068
293.15 K, x2 = 0.1	867.29 ± 0.97	1389.8 ± 1.9	6.028 ± 0.06
293.15 K, x2 = 0.2	865.42 ± 0.93	1384.1 ± 1.7	5.695 ± 0.053
293.15 K, x2 = 0.3	863.2 ± 0.9	1377.6 ± 1.6	5.368 ± 0.046
293.15 K, x2 = 0.4	860.5 ± 0.87	1370 ± 1.4	5.016 ± 0.04
293.15 K, x2 = 0.5	857.13 ± 0.85	1360.7 ± 1.3	4.643 ± 0.034
293.15 K, x2 = 0.6	852.82 ± 0.84	1349.2 ± 1.1	4.238 ± 0.029
293.15 K, x2 = 0.7	846.96 ± 0.82	1333.8 ± 0.96	3.8 ± 0.024
293.15 K, x2 = 0.8	838.72 ± 0.82	1312.4 ± 0.81	3.299 ± 0.02
293.15 K, x2 = 0.9	826.05 ± 0.81	1279 ± 0.67	2.748 ± 0.016
298.15 K, x2 = 0	865.27 ± 1	1376.2 ± 2	5.653 ± 0.06
298.15 K, x2 = 0.1	863.62 ± 0.97	1371.8 ± 1.9	5.318 ± 0.053
298.15 K, x2 = 0.2	861.71 ± 0.93	1366.1 ± 1.7	5.028 ± 0.047
298.15 K, x2 = 0.3	859.46 ± 0.9	1359.7 ± 1.6	4.736 ± 0.041
298.15 K, x2 = 0.4	856.73 ± 0.87	1352 ± 1.4	4.427 ± 0.036
298.15 K, x2 = 0.5	853.33 ± 0.85	1342.7 ± 1.3	4.102 ± 0.031
298.15 K, x2 = 0.6	848.98 ± 0.84	1331.2 ± 1.1	3.742 ± 0.026
298.15 K, x2 = 0.7	843.08 ± 0.82	1315.9 ± 0.96	3.357 ± 0.022
298.15 K, x2 = 0.8	834.8 ± 0.82	1294.6 ± 0.81	2.93 ± 0.018
298.15 K, x2 = 0.9	822.08 ± 0.81	1261.3 ± 0.67	2.455 ± 0.015
303.15 K, x2 = 0	861.63 ± 1	1358.4 ± 2	4.986 ± 0.053
303.15 K, x2 = 0.1	859.95 ± 0.97	1353.9 ± 1.9	4.693 ± 0.047
303.15 K, x2 = 0.2	858.01 ± 0.93	1348.3 ± 1.7	4.435 ± 0.042
303.15 K, x2 = 0.3	855.72 ± 0.89	1341.8 ± 1.6	4.183 ± 0.037
303.15 K, x2 = 0.4	852.96 ± 0.87	1334.2 ± 1.4	3.915 ± 0.032
303.15 K, x2 = 0.5	849.52 ± 0.85	1324.8 ± 1.3	3.629 ± 0.028
303.15 K, x2 = 0.6	845.14 ± 0.84	1313.4 ± 1.1	3.312 ± 0.024
303.15 K, x2 = 0.7	839.19 ± 0.82	1298.1 ± 0.96	2.98 ± 0.02
303.15 K, x2 = 0.8	830.87 ± 0.82	1276.9 ± 0.81	2.603 ± 0.017
303.15 K, x2 = 0.9	818.09 ± 0.81	1243.8 ± 0.67	2.186 ± 0.014
308.15 K, x2 = 0	858.01 ± 1	1340.8 ± 2	4.424 ± 0.048
308.15 K, x2 = 0.1	856.28 ± 0.97	1336.3 ± 1.9	4.167 ± 0.042
308.15 K, x2 = 0.2	854.3 ± 0.93	1330.6 ± 1.7	3.94 ± 0.037
308.15 K, x2 = 0.3	851.98 ± 0.89	1324.2 ± 1.6	3.719 ± 0.033
308.15 K, x2 = 0.4	849.18 ± 0.87	1316.5 ± 1.4	3.482 ± 0.029
308.15 K, x2 = 0.5	845.71 ± 0.85	1307.2 ± 1.3	3.23 ± 0.025
308.15 K, x2 = 0.6	841.28 ± 0.84	1295.7 ± 1.1	2.956 ± 0.021
308.15 K, x2 = 0.7	835.29 ± 0.83	1280.4 ± 0.96	2.657 ± 0.018
308.15 K, x2 = 0.8	826.92 ± 0.82	1259.4 ± 0.81	2.324 ± 0.015
308.15 K, x2 = 0.9	814.08 ± 0.81	1226.5 ± 0.67	1.955 ± 0.013
313.15 K, x2 = 0	854.39 ± 1	1323.3 ± 2	3.919 ± 0.042
313.15 K, x2 = 0.1	852.62 ± 0.96	1318.8 ± 1.9	3.697 ± 0.038
313.15 K, x2 = 0.2	850.61 ± 0.93	1313.1 ± 1.7	3.497 ± 0.033
313.15 K, x2 = 0.3	848.24 ± 0.89	1306.6 ± 1.6	3.305 ± 0.03
313.15 K, x2 = 0.4	845.4 ± 0.87	1299 ± 1.4	3.1 ± 0.026
313.15 K, x2 = 0.5	841.89 ± 0.85	1289.6 ± 1.3	2.882 ± 0.023
313.15 K, x2 = 0.6	837.41 ± 0.84	1278.2 ± 1.1	2.645 ± 0.02
313.15 K, x2 = 0.7	831.37 ± 0.83	1262.9 ± 0.96	2.384 ± 0.017
313.15 K, x2 = 0.8	822.94 ± 0.82	1241.9 ± 0.81	2.09 ± 0.015
313.15 K, x2 = 0.9	810.04 ± 0.81	1209.2 ± 0.67	1.76 ± 0.013
318.15 K, x2 = 0	850.78 ± 1	1306 ± 2	3.554 ± 0.039
318.15 K, x2 = 0.1	848.97 ± 0.96	1301.4 ± 1.9	3.354 ± 0.034
318.15 K, x2 = 0.2	846.91 ± 0.92	1295.7 ± 1.7	3.171 ± 0.031
318.15 K, x2 = 0.3	844.5 ± 0.89	1289.2 ± 1.6	2.996 ± 0.027
318.15 K, x2 = 0.4	841.62 ± 0.87	1281.6 ± 1.4	2.808 ± 0.024
318.15 K, x2 = 0.5	838.06 ± 0.85	1272.1 ± 1.3	2.606 ± 0.021
318.15 K, x2 = 0.6	833.53 ± 0.84	1260.7 ± 1.1	2.388 ± 0.018
318.15 K, x2 = 0.7	827.44 ± 0.83	1245.5 ± 0.96	2.147 ± 0.016
318.15 K, x2 = 0.8	818.94 ± 0.82	1224.5 ± 0.81	1.882 ± 0.014
318.15 K, x2 = 0.9	805.97 ± 0.81	1191.9 ± 0.67	1.584 ± 0.012
323.15 K, x2 = 0	847.17 ± 1	1288.9 ± 2	3.214 ± 0.035
323.15 K, x2 = 0.1	845.32 ± 0.96	1284.2 ± 1.9	3.036 ± 0.031
323.15 K, x2 = 0.2	843.22 ± 0.92	1278.4 ± 1.7	2.871 ± 0.028
323.15 K, x2 = 0.3	840.76 ± 0.89	1272 ± 1.6	2.712 ± 0.025
323.15 K, x2 = 0.4	837.83 ± 0.87	1264.2 ± 1.4	2.542 ± 0.022
323.15 K, x2 = 0.5	834.21 ± 0.85	1254.8 ± 1.3	2.36 ± 0.019
323.15 K, x2 = 0.6	829.63 ± 0.84	1243.3 ± 1.1	2.163 ± 0.017
323.15 K, x2 = 0.7	823.48 ± 0.83	1228.1 ± 0.96	1.945 ± 0.015
323.15 K, x2 = 0.8	814.91 ± 0.82	1207.2 ± 0.81	1.704 ± 0.013
323.15 K, x2 = 0.9	801.87 ± 0.81	1174.8 ± 0.67	1.433 ± 0.011
328.15 K, x2 = 0	843.58 ± 1	1271.9 ± 2	2.921 ± 0.032
328.15 K, x2 = 0.1	841.67 ± 0.96	1267.1 ± 1.9	2.762 ± 0.029
328.15 K, x2 = 0.2	839.52 ± 0.92	1261.3 ± 1.7	2.612 ± 0.026
328.15 K, x2 = 0.3	837.01 ± 0.89	1254.8 ± 1.6	2.467 ± 0.023
328.15 K, x2 = 0.4	834.04 ± 0.87	1247.1 ± 1.4	2.312 ± 0.02
328.15 K, x2 = 0.5	830.37 ± 0.85	1237.6 ± 1.3	2.146 ± 0.018
328.15 K, x2 = 0.6	825.72 ± 0.84	1226.1 ± 1.1	1.969 ± 0.016
328.15 K, x2 = 0.7	819.5 ± 0.83	1210.8 ± 0.96	1.768 ± 0.014
328.15 K, x2 = 0.8	810.86 ± 0.82	1190 ± 0.81	1.55 ± 0.012
328.15 K, x2 = 0.9	797.72 ± 0.81	1157.7 ± 0.67	1.301 ± 0.011
333.15 K, x2 = 0	839.98 ± 1	1255.2 ± 2	2.643 ± 0.029
333.15 K, x2 = 0.1	838.03 ± 0.96	1250.2 ± 1.9	2.502 ± 0.026
333.15 K, x2 = 0.2	835.83 ± 0.92	1244.3 ± 1.7	2.366 ± 0.024
333.15 K, x2 = 0.3	833.26 ± 0.89	1237.8 ± 1.6	2.236 ± 0.021
333.15 K, x2 = 0.4	830.24 ± 0.87	1230 ± 1.4	2.098 ± 0.019
333.15 K, x2 = 0.5	826.5 ± 0.85	1220.5 ± 1.3	1.948 ± 0.017
333.15 K, x2 = 0.6	821.79 ± 0.84	1208.9 ± 1.1	1.792 ± 0.015
333.15 K, x2 = 0.7	815.49 ± 0.83	1193.6 ± 0.96	1.611 ± 0.013
333.15 K, x2 = 0.8	806.76 ± 0.82	1172.8 ± 0.81	1.413 ± 0.012
333.15 K, x2 = 0.9	793.52 ± 0.81	1140.6 ± 0.67	1.185 ± 0.011
338.15 K, x2 = 0	836.39 ± 1	1238.6 ± 2	2.448 ± 0.028
338.15 K, x2 = 0.1	834.39 ± 0.96	1233.4 ± 1.9	2.317 ± 0.025
338.15 K, x2 = 0.2	832.14 ± 0.92	1227.5 ± 1.7	2.191 ± 0.022
338.15 K, x2 = 0.3	829.51 ± 0.89	1220.9 ± 1.6	2.069 ± 0.02
338.15 K, x2 = 0.4	826.42 ± 0.87	1213 ± 1.4	1.938 ± 0.018
338.15 K, x2 = 0.5	822.62 ± 0.85	1203.5 ± 1.3	1.796 ± 0.016
338.15 K, x2 = 0.6	817.84 ± 0.84	1191.8 ± 1.1	1.649 ± 0.014
338.15 K, x2 = 0.7	811.45 ± 0.83	1176.5 ± 0.96	1.477 ± 0.013
338.15 K, x2 = 0.8	802.63 ± 0.82	1155.6 ± 0.81	1.294 ± 0.011
338.15 K, x2 = 0.9	789.27 ± 0.82	1123.5 ± 0.67	1.08 ± 0.01
343.15 K, x2 = 0	832.81 ± 1	1222.5 ± 2	2.254 ± 0.026
343.15 K, x2 = 0.1	830.76 ± 0.96	1216.9 ± 1.9	2.135 ± 0.023
343.15 K, x2 = 0.2	828.45 ± 0.92	1210.9 ± 1.7	2.018 ± 0.021
343.15 K, x2 = 0.3	825.76 ± 0.89	1204.2 ± 1.6	1.905 ± 0.019
343.15 K, x2 = 0.4	822.6 ± 0.87	1196.2 ± 1.4	1.784 ± 0.017
343.15 K, x2 = 0.5	818.73 ± 0.85	1186.6 ± 1.3	1.65 ± 0.015
343.15 K, x2 = 0.6	813.87 ± 0.84	1174.9 ± 1.1	1.515 ± 0.013
343.15 K, x2 = 0.7	807.39 ± 0.83	1159.5 ± 0.96	1.354 ± 0.012
343.15 K, x2 = 0.8	798.46 ± 0.82	1138.5 ± 0.81	1.185 ± 0.011
343.15 K, x2 = 0.9	784.97 ± 0.82	1106.3 ± 0.67	0.9873 ± 0.01
